Data from patent publication US7018345B2, “Iontophoresis system” (Hisamitsu Pharmaceutical Co., Inc., priority 2002, dated 2006).
Where two headings read alike, the source gives them in different places.

Assay: Iontophoretic administration of salmon calcitonin to beagles, blood level by RIA
Type: in vivo, beagle (dog)
Conditions: for level at 0.5 h: beagle, dog, blood, pulse depolarization iontophoresis 0.2 mA for 30 min, measured 30 minutes later, beagles under pentobarbital anesthesia, read-out: blood concentration of salmon calcitonin
Procedure: Beagles were put under pentobarbital anesthesia. A positive electrode pad containing salmon calcitonin 1000 unit (an extraction pad of an electrode structure applied to the mucous membrane of the mouth) was applied to the mucous membrane of the mouth of each beagle. A negative electrode (a counter pad of an electrode structure applied to the skin) was applied to the ear of the beagle. A pulse depolarization type iontophoresis system was used to apply a 0.2-mA current for 30 minutes. Then, 30 minutes later, the level of salmon calcitonin in the blood was measured. An RIA kit (ROIK6003, Peninsula) was used for quantification.
As in the case with Example 3, salmon calcitonin was administered to beagles under pentobarbital anesthesia. However, the positive electrode pad was not applied to the mucous membrane of the mouth but to the skin (belly). The negative electrode was applied to the ear. The other conditions are similar to those for Example 3.
FIG. 4 is a graph showing the blood concentration observed 30 minutes after the application of the present system to the mucous membrane of the mouth (Example 3) and to the skin (Comparative Example 1). The blood concentration was about 530 pg/ml 30 minutes after salmon calcitonin was administered to the dog via the mucous membrane of the mouth (Example 3). The blood concentration was about 90 pg/ml 30 minutes after salmon calcitonin was administered to the dog via the skin (Comparative Example 1). Calcitonin is ionized, but owing to its […], calcitonin permeates through the living body as a result of the flow of water caused by iontophoresis instead of its direct electric driving force.

For `CC(C)C[C@H](NC(=O)[C@H](CCCCN)NC(=O)CNC(=O)[C@H](CC(C)C)NC(=O)[C@@H](NC(=O)[C@@H]1CSSC[C@H](N)C(=O)N[C@@H](CO)C(=O)N[C@@H](CC(N)=O)C(=O)N[C@@H](CC(C)C)C(=O)N[C@@H](CO)C(=O)N[C@@H]([C@@H](C)O)C(=O)N1)C(C)C)C(=O)N[C@@H](CO)C(=O)N[C@@H](CCC(N)=O)C(=O)N[C@@H](CCC(=O)O)C(=O)N[C@@H](CC(C)C)C(=O)N[C@@H](Cc1c[nH]cn1)C(=O)N[C@@H](CCCCN)C(=O)N[C@@H](CC(C)C)C(=O)N[C@@H](CCC(N)=O)C(=O)N[C@H](C(=O)N[C@@H](Cc1ccc(O)cc1)C(=O)N1CCC[C@H]1C(=O)N[C@@H](CCCNC(=N)N)C(=O)N[C@H](C(=O)N[C@@H](CC(N)=O)C(=O)N[C@H](C(=O)NCC(=O)N[C@@H](CO)C(=O)NCC(=O)N[C@H](C(=O)N1CCC[C@H]1C(N)=O)[C@@H](C)O)[C@@H](C)O)[C@@H](C)O)[C@@H](C)O` [salmon calcitonin], which level at 0.5 h (topical or ocular, Comparative Example 1: positive electrode pad (1000 unit) on skin (belly)) is on record?
Its level at 0.5 h is ~0.09 ng/mL.

And the level at 0.5 h (Example 3: positive electrode pad (1000 unit) on mucous membrane of the mouth)?
The level at 0.5 h was ~0.53 ng/mL.

And the “absorptivity of mucous membrane relative to skin” value (iontophoresis, mucous membrane vs skin)?
The value was “six”.
